We go through seven compounds from patent publication US7579488B2 (Eli Lilly and Company, priority 2003, dated 2009).

Several values for one entry are separate records, joined by “and”; a condition that tells them apart may be missing. Equal entries are not always repeated. Where two headings read alike, the source gives them in different places. A value given as a limit tells only on which side of the number the result lay.

Data set [1] concerns female DBF mice. The following applies: in vivo, po.
From the text: The Mouse Hypercalcemia Assay
(§1) The Mouse Hypercalcemia Assay is a six day hypercalcemia test for toxicity and selectivity.
(§2) (4) Materials and Method for the Mouse Hypercalcemia Assay:
(§3) Weanling, virus-antibody-free, five to six weeks old female DBF mice (Harlan, Indianapolis, Ind.) are used for all the studies. Animals are allowed to acclimate to local vivarium conditions for 2 days. […] The animals then are divided into groups with 4-5 mice per group. Different doses of test compounds prepared in 10% Ethanol and 90% sesame oil are administered to mice orally via gavage for 6 days. 1α-25(OH)2D3 0.5 μg/kg/d was also given to one group of mice as the positive control. […] Raw data of group differences is assessed by analysis of variance (ANOVA) using Fisher's protected least significant difference (PLSD) where the significance level was P<0.05.
Data set [2] relates to IL-10. Briefly: IL-10 induction assay. The data set is classed as cell-based. The note with it: Homo sapiens, PBMC, TPA/PHA stimulated human PBMCs, IL-10 in supernatant by immunoassay; several values separated by /. The text has this: 6. The IL-10 Induction Assay
This is an in vitro efficacy assay for psoriasis, abscess and adhesion. Psoriasis involves both keratinocytes and immune cells. IL-10 is a unique cytokine because it is anti-inflammatory and immunosuppressive. This assay tells us whether a VDRM is able to function as an agonist in PBMCs ([…]) or not.
(6) Materials and Method for Human IL-10 Induction Assay:
Isolation of Peripheral Blood Mononuclear Cells (PBMCs):
B. Prepare sterile tubes with ficol.
C. Add diluted blood to tubes.
E. Discard the top layer and collect the cells from middle layer.
F. Divide all cells into four tubes and add media.
H. Aspirate off media and resuspend.
J. Centrifuge. at 1200 rpm for 10 minutes.
M. Dissolve PHA in water.
N. Plate TPA/PHA treated PBMCs in well plates.
Sample Collection and Assay:
S. Remove all the cells by centrifugation and assay the supernatant for IL-10 by immunoassay.
1) T. Perform […] using anti-human IL-10 antibody coated beads, as described by the manufacturer (Linco Research Inc., St. Charles, Mo.).

For data set [3], the system named is KERtr cells. In words: Keratinocyte proliferation assay. The data set is classed as cell-based. The following applies: Homo sapiens, 72 h, BrdU incorporation, several values separated by /, read-out: Kera. Prolif. IC50. On the technique in general: Uptake of a labelled nucleoside into DNA is a usual measure of proliferation.
Data set [4] has as its system rat osteocalcin promoter. In words: OCN (osteocalcin) promoter assay. In kind it is cell-based. The following applies: RG-15 (ROS 17/2.8) cells, 48 hr treatment, luciferase, several values separated by /. Summed up: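 Rat osteoblast-like RG-15 (ROS 17/2.8) cells stably carrying a luciferase reporter driven by the osteocalcin promoter, treated with compounds in DMSO (0.01% v/v final) in medium with 2% FBS. After 48 hr at 37 °C, cells were lysed and luciferase activity measured.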

Data set [5] concerns female DBF mice. Briefly: Mouse hypercalcemia assay. The note with it: oral gavage for 6 days; serum ionized calcium 6 hours after last dosing.
From the text: The Mouse Hypercalcemia Assay
as §1, §2, §3
Data set [6] has as its target T1, VDR (Homo sapiens, UniProt P11473).
T1 construct: the receptor expression vector pGal4-VDR-LBD (10 ng); expressed in transfected cells; host or cells: Caco-2 cells
T1 sequence (P11473 127-423 limits assumed): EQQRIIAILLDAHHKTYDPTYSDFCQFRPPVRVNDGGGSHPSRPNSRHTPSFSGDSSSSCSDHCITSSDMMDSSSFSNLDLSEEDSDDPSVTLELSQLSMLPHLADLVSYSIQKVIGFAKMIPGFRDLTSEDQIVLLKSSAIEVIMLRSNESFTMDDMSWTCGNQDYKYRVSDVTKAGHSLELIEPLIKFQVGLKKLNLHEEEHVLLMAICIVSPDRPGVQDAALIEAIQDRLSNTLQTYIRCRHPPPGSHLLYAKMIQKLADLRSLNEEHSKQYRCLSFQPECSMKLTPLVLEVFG
Briefly: VDR CTF (Caco-2 cell co-transfection) assay. The data set is classed as cell-based. The note with it: Caco-2 cells, pGal4-VDR-LBD co-transfection, luciferase; several values separated by /. As for the experimental part:
2. The Caco-2 Cell Co-Transfection Assay:
The Caco-2 cell assay is an indicator for the undesirable condition of hypercalcemia. This co-transfection assay is a surrogate assay for in vivo calcemic activity of VDR ligands. […] Preferred assay results are greater than 1000 nM.
(2) Materials and Method for the Caco-2 Cell Assay:
Caco-2 cells, grown in phenol red free, DMEM (Invitrogen, Carlsbad, Calif.) containing 10% charcoal-stripped FCS (Hyclone, Logan, Utah), were transfected with Fugene 6 reagent (Roche Diagnostics, Indianapolis, Ind.). Cells (5000/well) were plated 18 h before transfection in a 96 well plate. The Cells were transfected with Gal4-responsive reporter pFRLuc (150 ng, Stratagene, La Jolla Calif.) and the receptor expression vector pGal4-VDR-LBD (10 ng), along with Fugene 6 reagent (0.2 μl/well). The DNA-Fugene complex was formed by incubating the mixture for 30 min at room temperature. The cells were transfected in triplicate for 5 h, and treated with various concentrations of VDR ligands (form 0.01 nM to 10,000 nM concentration range) 18 h post-transfection. The luciferase activity was quantified using Steady-Glo reagent kit (Promega, Madison, Wis.) as per manufacturer's specifications.

The target of data set [7] is T2, RXR-VDR heterodimer (Homo sapiens, UniProt P11473).
T2 construct: Add the Gal4-RXR-DEF and VP16-VDR-LBD; expressed in transfected cells; host or cells: SaOS-2 cells
T2 sequence (P11473 127-423 limits assumed): T1 sequence (P11473 127-423 limits assumed)
T2 sequence (P19793 201-462 partner limits assumed): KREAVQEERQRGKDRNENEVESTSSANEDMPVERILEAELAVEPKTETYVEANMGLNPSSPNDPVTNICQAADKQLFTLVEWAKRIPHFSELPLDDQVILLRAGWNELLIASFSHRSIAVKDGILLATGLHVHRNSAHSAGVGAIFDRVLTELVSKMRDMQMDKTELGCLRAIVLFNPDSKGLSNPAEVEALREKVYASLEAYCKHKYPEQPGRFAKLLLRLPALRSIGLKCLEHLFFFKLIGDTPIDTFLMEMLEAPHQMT
Briefly: RXR-VDR heterodimerization assay (SaOS-2 cells). In kind it is cell-based. The note with it: Gal4-RXR-DEF/VP16-VDR-LBD luciferase reporter, several values in a cell separated by /. (A reporter such as luciferase makes a cellular process visible.)

Regarding `C=C1/C(=C\C=C2/CCC[C@]3(C)[C@@H]([C@H](C)CCCC(C)(C)O)CC[C@@H]23)C[C@@H](O)C[C@@H]1O` [AA, 1α,25-dihydroxyvitamin D3], the “Mouse Hypercal” value in data set [1] came to 0.06 µg/kg/day.
Regarding `CCC(CC)(c1ccc(OCC(=O)C(C)(C)C)c(C)c1)c1cc2cc(C(=O)NCC(=O)O)ccc2o1` [Ex 7, [(2-{1-[4-(3,3-Dimethyl-2-oxo-butoxy)-3-methyl-phenyl]-1-ethylpropyl}-benzofuran-5-carbonyl)-amino]-acetic acid], the IC50 – broadly, the concentration needed to halve the response being measured – in data set [2] came out at 0.024 µM; in data set [3] it was 0.005 µM. In addition, the EC50 – broadly, the concentration at which the effect is half-maximal – in data set [4] (Rattus norvegicus, 48 h) stood at 0.0004 µM; in data set [6], 412 nM. The “Mouse Hypercal” value in data set [5] is above 300 µg/kg/day.
For `CCC(CC)(c1ccc(OCC(=O)C(C)(C)C)c(C)c1)c1cc(C)c2oc(C(=O)O)cc2c1` [Ex 21, 5-{1-[4-(3,3-dimethyl-2-oxo-butoxy)-3-methyl-phenyl]-1-ethyl-propyl}-7-methyl-benzofuran-2-carboxylic acid], the EC50 in data set [7] was 0.05 µM and 0.005 µM; in data set [4], 0.001 µM; in data set [4] (Rattus norvegicus, 48 h), 0.002 µM; in data set [6], 462 nM. For the same compound, the IC50 in data set [2] worked out at 0.08 µM; in data set [3], 0.018 µM. Besides, in data set [5], the “Mouse Hypercal” value is above 1000 µg/kg/day.
`CCC(CC)(c1ccc(OCC(=O)C(C)(C)C)c(C)c1)c1ccc2oc(C(=O)O)cc2c1` [Ex 30, 5-{1-[4-(3,3-dimethyl-2-oxo-butoxy)-3-methyl-phenyl]-1-ethyl-propyl}-benzofuran-2-carboxylic acid]: the IC50 in data set [2] was found to be 0.025 µM; in data set [3], 0.009 µM. The EC50 was determined as 0.0003 µM in data set [4] (Rattus norvegicus, 48 h) and 364 nM in data set [6]. The “Mouse Hypercal” value in data set [5] was above 1000 µg/kg/day.
Turning to `CCC(CC)(c1ccc(OCC(=O)C(C)(C)C)c(C)c1)c1ccc2oc(C(=O)NCC(=O)O)cc2c1` [Ex 32, [(5-{1-[4-(3,3-dimethyl-2-oxo-butoxy)-3-methyl-phenyl]-1-ethyl-propyl}-benzofuran-2-carbonyl)-amino]-acetic acid], the concentration giving a half-maximal response (EC50) in data set [7] is 0.031 µM and 0.004 µM; in data set [4] (Rattus norvegicus, 48 h), 0.001 µM; in data set [6], 385 nM. Further, the IC50 was 0.051 µM in data set [2] and 0.01 µM in data set [3]. The “Mouse Hypercal” value in data set [5] is above 300 µg/kg/day.
As for `CCC(CC)(c1ccc(OCC(=O)C(C)(C)C)c(C)c1)c1cc2cc(C(=O)Nc3nn[nH]n3)ccc2o1` [Ex. 11, 2-{1-[4-(3,3-dimethyl-2-oxo-butoxy)-3-methyl-phenyl]-1-ethyl-propyl}-benzofuran-5-carboxylic acid (2H-tetrazol-5-yl)-amide], the results for the EC50 in data set [7] and in data set [6] were 0.73 µM and 819 nM, respectively. Further, the IC50 in data set [2] is above 2 µM; in data set [3] it was 0.009 µM. Further, in data set [5], the “Mouse Hypercal” value was above 1000 µg/kg/day.
Take `CCc1cc(C(CC)(CC)c2cc3cc(C(=O)O)ccc3o2)ccc1OCC(=O)C(C)(C)C` [Ex. 12]: the IC50 came to 0.049 µM in data set [2] and 0.016 µM in data set [3]. For the same compound, the EC50 is 0.0007 µM in data set [4] (Rattus norvegicus, 48 h) and 515 nM in data set [6]. Further, in data set [5], the “Mouse Hypercal” value is above 1000 µg/kg/day.
